This note sets out measurements from the NIST ThermoML archive (doi:10.1016/j.jct.2007.11.002).

± gives the expanded uncertainty stated by the source.

The conditions of this series: 101.33 kPa, Liquid; for viscosity: Capillary tube (Ostwald / Ubbelohde) method; for mass density: Vibrating tube method.

For orientation: viscosity means the resistance of a fluid to flow. What is called mass density is mass per unit of volume. On to `CN1CCOCC1` [N-methylmorpholine], for which the viscosity by setting is: (298.15 K) 0.881 ± 0.012 mPa·s; (303.15 K) 0.864 ± 0.012 mPa·s; (313.15 K) 0.833 ± 0.011 mPa·s; (323.15 K) 0.814 ± 0.011 mPa·s. The mass density runs as follows: (298.15 K) 914.06 ± 0.74 kg/m3; (303.15 K) 909.44 ± 0.73 kg/m3; (313.15 K) 899.76 ± 0.72 kg/m3; (323.15 K) 890.85 ± 0.71 kg/m3.
Turning to `C1CCCCC1` [cyclohexane], the viscosity by setting is: (298.15 K) 0.904 ± 0.009 mPa·s; (303.15 K) 0.809 ± 0.009 mPa·s; (313.15 K) 0.698 ± 0.008 mPa·s; (323.15 K) 0.604 ± 0.008 mPa·s. The mass density (298.15 K) worked out at 773.25 ± 0.24 kg/m3, the mass density (303.15 K) turned out to be 769.18 ± 0.24 kg/m3, the mass density (313.15 K) is recorded as 759.58 ± 0.24 kg/m3 and the mass density (323.15 K) came out at 750.03 ± 0.24 kg/m3.
As to `c1ccccc1` [benzene], the viscosity (298.15 K) was found to be 0.601 ± 0.007 mPa·s, the viscosity (303.15 K) amounted to 0.563 ± 0.007 mPa·s, the viscosity (313.15 K) is on record as 0.494 ± 0.007 mPa·s and the viscosity (323.15 K) is listed as 0.436 ± 0.007 mPa·s. Also, the mass density turned out to be 873.58 ± 0.09 kg/m3 (298.15 K), 868.23 ± 0.09 kg/m3 (303.15 K), 857.38 ± 0.1 kg/m3 (313.15 K) and 846.62 ± 0.1 kg/m3 (323.15 K).
Take `Cc1ccccc1` [toluene]: the viscosity (298.15 K) is 0.553 ± 0.007 mPa·s, the viscosity (303.15 K) is given as 0.523 ± 0.007 mPa·s, the viscosity (313.15 K) came out at 0.471 ± 0.007 mPa·s and the viscosity (323.15 K) was found to be 0.422 ± 0.007 mPa·s. Moreover, the mass density reads like this: (298.15 K) 862.11 ± 0.23 kg/m3; (303.15 K) 857.62 ± 0.23 kg/m3; (313.15 K) 847.87 ± 0.25 kg/m3; (323.15 K) 838.42 ± 0.29 kg/m3.
